Earlier results, collected in patent US20240365792A1, “Pest Control Formulations and Uses Thereof” (priority 2021, published 2024).

What was measured:
[1] = biological target: acetylcholinesterase (Homo sapiens, UniProt P22303); details: in humans
[2] = direct application to the skin
[3] = test system: salamander larvae; details: in vivo
[4] = test system: insects; details: compared with DEET

Sequence of acetylcholinesterase (P22303 32-614): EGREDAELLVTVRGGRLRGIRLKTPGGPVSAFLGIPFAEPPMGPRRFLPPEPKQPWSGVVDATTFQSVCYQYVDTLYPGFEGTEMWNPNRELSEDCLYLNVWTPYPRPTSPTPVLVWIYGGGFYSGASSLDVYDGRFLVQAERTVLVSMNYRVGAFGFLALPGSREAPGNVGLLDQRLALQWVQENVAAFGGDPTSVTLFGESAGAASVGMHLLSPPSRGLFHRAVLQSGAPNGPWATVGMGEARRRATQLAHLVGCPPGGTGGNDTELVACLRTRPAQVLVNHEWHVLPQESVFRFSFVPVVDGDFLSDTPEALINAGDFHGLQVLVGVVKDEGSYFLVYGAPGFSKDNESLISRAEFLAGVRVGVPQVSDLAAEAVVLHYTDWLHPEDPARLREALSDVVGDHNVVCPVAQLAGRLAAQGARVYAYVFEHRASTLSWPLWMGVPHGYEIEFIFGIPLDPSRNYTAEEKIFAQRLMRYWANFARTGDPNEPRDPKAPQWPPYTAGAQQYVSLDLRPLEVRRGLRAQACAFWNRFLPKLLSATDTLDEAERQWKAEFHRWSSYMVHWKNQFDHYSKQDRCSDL

Which inhibition of acetylcholinesterase [1] does the source give for `CCN(CC)C(=O)c1cccc(C)c1` [DEET, N,N-diethyl-3-methylbenzamide] here?
The inhibition of acetylcholinesterase was “inhibit acetylcholinesterase”.

What about the irritancy [2] of the same molecule?
The irritancy was “act as an irritant”.

What does the source list for `CCC(C)OC(=O)N1CCCCC1CCO` (centres unmarked) [icaridin]?
toxicity to salamander larvae [3]: toxic to salamander larvae; effectiveness at repelling insects [4]: as effective as DEET; irritancy [2]: less irritating than DEET
